Patent US20110166220A1, “DRONEDARONE FOR THE PREVENTION OF PERMANENT ATRIAL FIBRILLATION” (SANOFI-AVENTIS, priority 2008, published 2011)
Where a name gives a salt, the structure may show the parent alone.

What was measured:
[1] = Prospective, multinational, double-blind, randomized, placebo-controlled, parallel group trial: prevention of permanent atrial fibrillation/flutter; format: in vivo; details: of 2301 patients treated; 400 mg of base twice daily with meals, 12 to 30 months; placebo 294; Fischer's exact test p<0.001
From the text: The invention is illustrated with the data below. Efficacy of dronedarone and its pharmaceutically acceptable salts versus placebo for the prevention of permanent atrial fibrillation was provided via dronedarone hydrochloride during a prospective, multinational, double-blind, randomized, multi-center, placebo-controlled, parallel group trial.
Patients must have a history of atrial fibrillation or atrial flutter and/or may be in normal sinus rhythm or in atrial fibrillation or flutter at the time of recruitment. Recruitment of patients was conducted taking into account the following inclusion criteria:
1) One of the following risk factors had to be present: • age equal to or greater than 70 years, • hypertension (taking antihypertensives of at least two different classes), • diabetes, • history of cerebral stroke (transient ischemic event or completed cerebral stroke) or of systemic embolism, • left atrial diameter greater than or equal to 50 mm measured by echocardiography, • left ventricular ejection fraction less than 40%, measured by two-dimensional echography; […]

[2] = Same trial: prevention of cardiovascular hospitalization or death in patients with permanent atrial fibrillation; format: in vivo
Protocol: The invention is illustrated with the data below. Efficacy of dronedarone and its pharmaceutically acceptable salts versus placebo for the prevention of permanent atrial fibrillation was provided via dronedarone hydrochloride during a prospective, multinational, double-blind, randomized, multi-center, placebo-controlled, parallel group trial. Study drug treatment units (placebo or dronedarone hydrochloride corresponding to 400 mg of base) were such that each patient took one tablet in the morning during or shortly after breakfast and one tablet in the evening during or shortly after dinner. The treatment duration depended on the time of recruitment of each patient in the trial and could be comprised from 12 months to 30 months. From the 4628 patients included in the trial, 2301 were part of the group treated with dronedarone hydrochloride. “Patients with permanent atrial fibrillation or flutter” means patients with a history of atrial fibrillation or atrial flutter, who were in atrial fibrillation or flutter at the time of recruitment but who had not a previous history of permanent atrial fibrillation or flutter and who stayed in permanent atrial fibrillation or flutter during all the trial. The results obtained during this trial were analyzed by the Kaplan Meier method for the figures and the relative risk (RR) was estimated using Cox's proportional effect regression model. The relative risk (RR) is the ratio of the rates of occurrence of a hospitalization or death in patients receiving dronedarone compared with patients receiving a placebo. The percentage reduction x of a given event (hospitalization, death, cardiovascular death and the like) is calculated in the following manner: x=1−relative risk. Of the 4628 patients included in the study, 2301 formed part of the group treated with dronedarone hydrochloride. […] 74 events were recorded in the placebo group against 29 in the group treated with dronedarone hydrochloride. The calculated relative risk is 0.67 with p=0.06, that is a 33% reduction in cardiovascular hospitalizations and deaths under dronedarone hydrochloride.

With `CCCCc1oc2ccc(NS(C)(=O)=O)cc2c1C(=O)c1ccc(OCCCN(CCCC)CCCC)cc1` [dronedarone hydrochloride, 2-n-butyl-3-[4-(3-di-n-butylaminopropoxy)benzoyl]-5-methylsulfonamido-benzofuran] the “number of patients with permanent atrial fibrillation/flutter” value [1] was 178 patients, the “events (cardiovascular hospitalization or death) recorded in patients in permanent atrial fibrillation” value ([2]; 178 patients in permanent AF in treated group, placebo 74 events of 294 patients) was 29 events and the “relative risk (RR) of cardiovascular hospitalization or death versus placebo” value ([2]; patients in permanent atrial fibrillation, Cox's proportional effect regression model, p=0.06) was 0.67. The “reduction in cardiovascular hospitalizations and deaths (x=1-relative risk)” value ([2]; patients in permanent atrial fibrillation, versus placebo, p=0.06) was 33%.
